Measurements: patent US20070292488A1, “METHOD FOR TREATMENT OF WOUND TREATMENT USING AGANOCIDES” (priority 2006, published 2007)

Experiments:
[1] = system: human secondary intention wound; assay: Vacuum-assisted wound treatment combined with intermittent instillation of aganocide (HOCl) on a human wound; format: in vivo; details: 0.45% NaCl, pH about 4
Procedure: A human secondary intention wound approximately 3-4 cm in diameter is fitted with a polyurethane sponge, pore size 400-600 microns cut to the size of the wound and twice the thickness of the wound and covered with an adhesive film, per instructions on the vacuum system. The outlet is connected to an IV bag (500 ml) with 0.01% HOCl, 0.45% NaCl, and pH of about 4 and is elevated to between 0.1 and 1 meter above the wound. A 1-cm hole is punctured in the adhesive film, and a second adhesive film is used to cover the hole, with the second outlet connected to the vacuum pump.
Each cycle consists of three phases: a 2-hour pumping phase when the vacuum (125 mm Hg negative pressure) is connected and the IV bag is disconnected; […] and the IV bag is connected and the aganocide is applied to the wound; […] IV bag are disconnected.
Each treatment has about 24 cycles and starts with a pumping phase and proceeds for 48 hours. When the treatment is completed, the dressings are changed and the treatment is repeated until full granulation has been promoted and the granulation tissue is within the level of the skin, approximately 30 to 100 days, depending on the depth of the original wound. […]

test bacteria = assay: Comparison of hypochlorous acid with Dakin's solution (antimicrobial activity, therapeutic index, time kill); details: in the regimen described
Text: “Time kill” refers to an in vitro measure of how fast a given antimicrobial can kill test bacteria.
This means that the time to wound closure may be reduced using hypochlorous acid.

With `OCl` [hypochlorous acid] the “wound healing results of combination regimen compared with vacuum alone or aganocide alone” value ([1]; Example 1: 0.01% HOCl, 1 second instilling, 15 second holding) was “superior”, the “wound healing results of combination regimen compared with vacuum alone or aganocide alone” value ([1]; Example 2: 0.01% HOCl, 5 second instilling, 5 minute holding) was “superior” and the “antimicrobial activity in comparison with Dakin's solution” value (test bacteria) was “improved”. For the same molecule, the “therapeutic index in comparison with Dakin's solution” value (test bacteria) was “improved” and the “time kill in comparison with Dakin's solution” value (test bacteria) was “improved”.
